Test system: KRAS patient-derived spheroids with HUVEC/MSC, viability
Assay: Anticancer human tumor 519858-162-T-J1-PDC patient-derived colon adenocarcinoma cell line growth inhibition [KRAS2]
Conditions: for IC50: curve of first compound; for viability, T/C: stronger effect = lower value
Excerpt: Multicellular complex tumor spheroid response to RAS pathway inhibitors in combination with a targeted agents in patient-derived cell lines with oncogenic KRAS variants from multiple cancer types
A high-throughput screen of multi-cell type tumor spheroids was designed to identify active combinations of targeted small molecules and KRAS pathway inhibitors. Complex spheroids include a stromal component modeled by human endothelial cells (HUVEC) and fibroblasts modeled by human mesenchymal stem cells (MSCs). The concentration ranges selected for each drug and investigational agent were based upon clinically achievable concentrations if the clinical Cmax of the agent was known.
Compounds. The drugs and investigational agents: BI-3406 (NSC825286), BAY-293 (NSC824723), batoprotafib (TNO155; NSC825523), sotorasib (AMG 510; NSC818433), MRTX1257 (NSC819558), elimusertib (BAY 1895344; NSC800525), molibresib (GSK525762; NSC774829), temuterkib (LY3214996; NSC803410), venetoclax (NSC766270), alisertib (NSC759677), olaparib (NSC753686), talazoparib (NSC767125), erdafitinib (NSC781556), ipatasertib (NSC767898), cabozantinib (NSC761068), nintedanib (NSC756659), abemaciclib (NSC768073), docetaxel (NSC628503), trametinib (NSC758246), and sapanisertib (NSC764658) were obtained from the National Cancer Institute (NCI) Developmental Therapeutics Program Chemical Repository. The FDA-approved anticancer drug set is available from the Developmental Therapeutics Program. […] The stock solutions were prepared in dimethyl sulfoxide (DMSO, Sigma-Aldrich, St. Louis, MO, cat. D2650) at 800-fold the tested concentration and stored at -70 degrees C prior to their use. All drugs and investigational agents were tested over a range starting from a high concentration at or near the clinical Cmax and decreasing in half-log increments. If the clinical Cmax for an agent had not been determined, the highest concentration tested was 10 microM.
Cell Culture. All cells were maintained in an incubator at 37 degrees C and 5% CO2 with 95% humidity. The PDC lines were cultured according to standard operating procedures established by the NCI PDMR (https://pdmr.cancer.gov/sops/default.htm). Briefly, all PDCs were thawed and cultured in Matrigel-coated flasks prepared with a working solution of 1X Ham's F-12 nutrient mix, without supplementation (Invitrogen, Waltham, MA, cat. 11765054), 100 U/mL penicillin-streptomycin (Invitrogen, cat. 15140122), and 2.5% Matrigel (Corning Inc., Corning, NY, cat. 354248) for the first three passages. All PDCs were cultured in complete DMEM/F-12 media containing advanced DMEM/F-12 (Invitrogen, cat. 12634028), 4.9% defined fetal bovine serum, heat inactivated (HyClone Laboratories Inc., Logan, UT, cat. SH30070.03HI), 389 ng/mL hydrocortisone (Sigma-Aldrich, cat. H4001), 9.7 ng/mL human EGF recombinant protein (Invitrogen, cat. PHG0313), 23.4 microg/mL adenine (Sigma-Aldrich, cat. A2786), 97.3 U/mL penicillin-streptomycin (Invitrogen, cat. 15140122), 1.9 mM L-glutamine (Invitrogen, cat. 25030081), and 9.7 microM Y-27632 dihydrochloride (Tocris Bioscience, Bristol, United Kingdom, cat. 1254). The PDCs were cultured in complete DMEM/F12 media without 9.7 microM Y-27632 dihydrochloride for at least two passages prior to the screen. The established cell line HOP-62 was cultured in RPMI 1640 medium, HEPES (Invitrogen, cat. 22400105) with 10% defined fetal bovine serum (HyClone Laboratories Inc., cat. SH30070.03) and 2 mM L-glutamine (Invitrogen, cat. 25030081). The pooled donor HUVEC were cultured in endothelial cell growth medium 2 (PromoCell, Heidelberg, Germany, cat. C-22011) and the hMSC were cultured in mesenchymal stem cell growth medium 2 (PromoCell, cat. C-28009). For all experiments, HUVEC and hMSC were used at passages </=5, while the malignant cell lines were used at passages </=15. […]

[1] = second compound 0.1 µM, first compound 0.0316 µM
[2] = second compound 0.1 µM, first compound 0.1 µM
[3] = second compound 0.316 µM, first compound 0.0316 µM
[4] = second compound 0.316 µM, first compound 0.1 µM
[5] = second compound 1 µM, first compound 0.0316 µM
[6] = second compound 1 µM, first compound 0.1 µM
[7] = second compound 3.16 µM, first compound 0.0316 µM
[8] = second compound 3.16 µM, first compound 0.1 µM
[9] = second compound 10 µM, first compound 0.0316 µM
[10] = second compound 10 µM, first compound 0.1 µM
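Also: compound exposure lasted seven days before readout.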
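For viability, T/C in this document: 100% = DMSO vehicle control viability.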

`CC(C)n1nc(-c2ccc3oc(N)nc3c2)c2c(N)ncnc21` + C=CC(=O)N1CCN(c2nc(=O)n(-c3c(C)ccnc3C(C)C)c3nc(-c4c(O)cccc4F)c(F)cc23)C(C)C1 was tested, and the IC50 (second compound 0.1 µM) was over 100 nM, the IC50 (second compound 0.316 µM) was over 100 nM and the IC50 (second compound 1 µM) was over 100 nM. The IC50 (second compound 3.16 µM) was over 100 nM, the IC50 (second compound 10 µM) was 81.5 nM and the viability, T/C (second compound 0.1 µM, first compound 0.000316 µM) was 114%. It also gave a viability, T/C (second compound 0.1 µM, first compound 0.001 µM) of 102%, a viability, T/C (second compound 0.1 µM, first compound 0.00316 µM) of 104% and a viability, T/C (second compound 0.1 µM, first compound 0.01 µM) of 67.5%. For the same molecule, the viability, T/C [1] was 76.3%, the viability, T/C [2] was 60.1% and the viability, T/C (second compound 0.316 µM, first compound 0.000316 µM) was 87.5%. It also gave a viability, T/C (second compound 0.316 µM, first compound 0.001 µM) of 94%, a viability, T/C (second compound 0.316 µM, first compound 0.00316 µM) of 70.2% and a viability, T/C (second compound 0.316 µM, first compound 0.01 µM) of 58.9%. For the same molecule, the viability, T/C [3] was 57.6%, the viability, T/C [4] was 54.5% and the viability, T/C (second compound 1 µM, first compound 0.000316 µM) was 108%. For the same molecule, the viability, T/C (second compound 1 µM, first compound 0.001 µM) was 78.4%, the viability, T/C (second compound 1 µM, first compound 0.00316 µM) was 67.3% and the viability, T/C (second compound 1 µM, first compound 0.01 µM) was 56.7%. For the same molecule, the viability, T/C [5] was 87.3%, the viability, T/C [6] was 54.9% and the viability, T/C (second compound 3.16 µM, first compound 0.000316 µM) was 94.3%. For the same molecule, the viability, T/C (second compound 3.16 µM, first compound 0.001 µM) was 75.1%, the viability, T/C (second compound 3.16 µM, first compound 0.00316 µM) was 74.6% and the viability, T/C (second compound 3.16 µM, first compound 0.01 µM) was 68.8%. The viability, T/C [7] was 64%, the viability, T/C [8] was 56.1% and the viability, T/C (second compound 10 µM, first compound 0.000316 µM) was 85.4%. It also gave a viability, T/C (second compound 10 µM, first compound 0.001 µM) of 76.6%, a viability, T/C (second compound 10 µM, first compound 0.00316 µM) of 69.6% and a viability, T/C (second compound 10 µM, first compound 0.01 µM) of 86.7%. It also gave a viability, T/C [9] of 62.3% and a viability, T/C [10] of 47.1%.

Work on `COc1cc2nccc(Oc3ccc(NC(=O)C4(C(=O)Nc5ccc(F)cc5)CC4)cc3)c2cc1OC` + C=CC(=O)N1CCN(c2nc(=O)n(-c3c(C)ccnc3C(C)C)c3nc(-c4c(O)cccc4F)c(F)cc23)C(C)C1 yielded an IC50 (second compound 0.1 µM) of over 10000 nM, an IC50 (second compound 0.316 µM) of over 10000 nM and an IC50 (second compound 1 µM) of over 10000 nM. The IC50 (second compound 3.16 µM) was over 10000 nM, the IC50 (second compound 10 µM) was over 10000 nM and the viability, T/C [1] was 77.8%. It also gave a viability, T/C [2] of 91.2%, a viability, T/C (second compound 0.1 µM, first compound 0.316 µM) of 93.5% and a viability, T/C (second compound 0.1 µM, first compound 1 µM) of 93.6%. For the same molecule, the viability, T/C (second compound 0.1 µM, first compound 3.16 µM) was 71.8%, the viability, T/C (second compound 0.1 µM, first compound 10 µM) was 185% and the viability, T/C [3] was 97.1%. The viability, T/C [4] was 99%, the viability, T/C (second compound 0.316 µM, first compound 0.316 µM) was 92.3% and the viability, T/C (second compound 0.316 µM, first compound 1 µM) was 86.6%. For the same molecule, the viability, T/C (second compound 0.316 µM, first compound 3.16 µM) was 84.8%, the viability, T/C (second compound 0.316 µM, first compound 10 µM) was 135% and the viability, T/C [5] was 91.5%. For the same molecule, the viability, T/C [6] was 87.7%, the viability, T/C (second compound 1 µM, first compound 0.316 µM) was 91.7% and the viability, T/C (second compound 1 µM, first compound 1 µM) was 98.7%. The viability, T/C (second compound 1 µM, first compound 3.16 µM) was 105%, the viability, T/C (second compound 1 µM, first compound 10 µM) was 134% and the viability, T/C [7] was 88.2%. The viability, T/C [8] was 73.3%, the viability, T/C (second compound 3.16 µM, first compound 0.316 µM) was 69.8% and the viability, T/C (second compound 3.16 µM, first compound 1 µM) was 81%. It also gave a viability, T/C (second compound 3.16 µM, first compound 3.16 µM) of 74.2%, a viability, T/C (second compound 3.16 µM, first compound 10 µM) of 109% and a viability, T/C [9] of 94.7%. The viability, T/C [10] was 89.5%, the viability, T/C (second compound 10 µM, first compound 0.316 µM) was 75.6% and the viability, T/C (second compound 10 µM, first compound 1 µM) was 68.2%. The viability, T/C (second compound 10 µM, first compound 3.16 µM) was 61.9% and the viability, T/C (second compound 10 µM, first compound 10 µM) was 131%.

From PubChem BioAssay AID1963872 (Molecular Pharmacology Branch, DTP, NCI, 2024)
